Data from patent EP1344776A1, “5- 2-hydroxy-3-[1-(3-trifluoromethylphenyl)-cyclopropyl]-propionylamino -phtalide and 6- 2-hydroxy-3-[1-(3-trifluoromethylphenyl)-cyclopropyl]-propionylamino -4-methyl-2,3-benzoxazin-1-one derivatives with progesterone receptor modulating activity for use in fertility control, hormone replacement …” (Schering Aktiengesellschaft, priority 2002, dated 2003).

Tested on: Pregnant rats (Wistar Han, SPF)
Test: Pregnancy maintenance test in rat
Type: in vivo
Text: In rats, castration induces termination of pregnancy. Progestins (combined with estrogens) are capable of maintaining pregnancy in castrated animals. However, the degree of pregnancy maintenance in castrated rats is optimal only in a defined dose range. Therefore, higher as well as lower doses generally induce a weaker effect. Accompanying treatment with defined doses of estrone (E1) increases the pregnancy maintaining effect of progestins.
Pregnant rats (Wistar Han, SPF) of 190 to 220 g (5 to 8 animals per dose) are ovariectomized on day 8 of pregnancy, 2 hours after the first substance administration. From day 8 to day 14, rats are daily treated with test progestin in combination with a standard dose of E1. One day later, animals are killed with carbon dioxide. For each animal, the number of living and dead fetuses is determined according to the heartbeat of the embryos. In case of empty uteri, the number of implantation sites is determined by means of staining with a 10 % ammonium sulfide solution.
S.c. (subcutaneous) application: The test progestin is dissolved in benzyl benzoate/castor oil (1+4 v/v), and the daily dose is administered in a volume of 1 ml/kg body weight.
P.o. (peroral) application: The test progestin is suspended in a carrier liquid (85 mg Myrj^R in 100 ml 0.9 % w/v NaCl solution), and the daily dose is administered in a volume of 2 ml/kg body weight.
I.p. (intraperitoneal) application: The test progestin is dissolved in propylene glycol and charged in miniature osmotic pumps (type 2001, 1.0 µl/h, 7 days), which are placed in the abdominal cavity of the rat.
The standard dose of estrone is 0.005 mg/kg body weight s.c. and is dissolved in benzyl benzoate/castor oil ([…]).
It is determined the pregnancy maintenance per animal [%], the pregnancy maintenance per dose (median of single values) and the ED50 (dose, at which pregnancy is maintained in 50 % of the animals; 100 % corresponds to control animals that are not ovariectomized).

Compound: O=C1OCc2cc(NC(=O)C(O)(CC3(c4cc(C(F)(F)F)ccc4F)CC3)C(F)(F)F)ccc21 (single isomer, unassigned; (+)) [((+)-1), (+)-5-{2-hydroxy-3-[1-(2-fluoro-5-trifluoromethylphenyl)-cyclopropyl]-2-trifluoromethyl-propionylamino}-phthalide]
- Maintenance of pregnancy (rat) [ED50] (ovariectomized pregnant rats, with estrone): 0.012 mg/kg
- potency compared to levonorgestrel (LNG), pregnancy maintenance test (rat, times more potent than LNG): about 10
- androgenic activity in pregnancy maintenance test (rats, dose 100 times higher than the dose required for maintaining pregnancy): no androgenic activity
